Assay results from patent publication EP4273147A1, “SUBSTITUTED SPIROLACTAMS, SALTS THEREOF AND THEIR USE AS HERBICIDALLY ACTIVE SUBSTANCES” (Bayer Aktiengesellschaft, priority 2022, dated 2023).

Columns and labels:
ECHCG [1] = experiment: Herbicidal pre-emergence action (Table A2); assay type: in vivo, Echinochloa crus-galli; details: visual grading after ca. 3 weeks
Outline: (§1)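 Pots: sandy loam. Sowing: one mono- and one dicot weed species together per pot. Seeds covered with soil.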

LOLRI [2] = experiment: Herbicidal pre-emergence action (Table A3); assay type: in vivo, Lolium rigidum; details: visual grading after ca. 3 weeks
Outline: as §1

SETVI [3] = experiment: Herbicidal pre-emergence action (Table A5); assay type: in vivo, Setaria viridis; details: visual grading after ca. 3 weeks
Outline: as §1

ALOMY = experiment: Herbicidal post-emergence action (Table B2); assay type: in vivo, Alopecurus myosuroides; details: application rate 1280 g/ha; rated visually after about 3 weeks
Protocol: (§2) Seeds of mono- and dicotyledonous weed plants were placed in plastic pots in sandy loam soil (doubly sown with in each case one species of mono- or dicotyledonous weed plants per pot), covered with soil and cultivated in a greenhouse under controlled growth conditions. 2 to 3 weeks after sowing, the test plants were treated at the one-leaf stage. […] After the test plants had been kept in the greenhouse under optimum growth conditions for about 3 weeks, the activity of the preparations was rated visually in comparison to untreated controls. For example, 100% activity = the plants have died, 0% activity = like control plants.

ECHCG [4] = experiment: Herbicidal post-emergence action (Table B3); assay type: in vivo, Echinochloa crus-galli; details: application rate 1280 g/ha, rated visually after about 3 weeks
Outline: (§3)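 Visual rating against untreated plants (0% = as control, 100% = dead) made roughly 3 weeks after application. Weed species were grown in sandy loam pots under greenhouse conditions and sprayed at the one-leaf stage, 2–3 weeks post-sowing.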

VERPE [5] = experiment: Herbicidal post-emergence action (Table B10); assay type: in vivo, Veronica persica
Outline: as §3

STEME = experiment: Herbicidal pre-emergence action (Table A6); assay type: in vivo, Stellaria media; details: visual grading after ca. 3 weeks
Outline: as §1

POAAN [6] = experiment: Herbicidal pre-emergence action (Table A7); assay type: in vivo, Poa annua; details: application rate 320 g/ha; visual grading after ca. 3 weeks
Outline: as §1

VERPE [7] = experiment: Herbicidal pre-emergence action (Table A11); assay type: in vivo, Veronica persica; details: application rate 1280 g/ha; visual grading after ca. 3 weeks
Outline: as §1

DIGSA [8] = experiment: Herbicidal pre-emergence action (Table A12); assay type: in vivo, Digitaria sanguinalis; details: application rate 320 g/ha; visual grading after ca. 3 weeks
Outline: as §1

DIGSA [9] = experiment: Herbicidal pre-emergence action, section C (Table C5); assay type: in vivo, Digitaria sanguinalis; details: application rate 320 g/ha; visual grading after ca. 3 weeks
ECHCG [10] = experiment: Herbicidal pre-emergence action, section C (Table C6); assay type: in vivo, Echinochloa crus-galli; details: application rate 320 g/ha; visual grading after ca. 3 weeks
POLCO = experiment: Herbicidal pre-emergence action, section C (Table C9); assay type: in vivo, Polygonum convolvulus; details: application rate 320 g/ha; visual grading after ca. 3 weeks
SETVI [11] = experiment: Herbicidal pre-emergence action, section C (Table C10); assay type: in vivo, Setaria viridis; details: application rate 320 g/ha; visual grading after ca. 3 weeks
TRZAS [12] = experiment: Pre-emergence effects on crop plants (Table D2); assay type: in vivo, Triticum aestivum; details: crop plant; application rate 320 g/ha; visual grading after ca. 3 weeks
GLXMA [13] = experiment: Pre-emergence effects on crop plants (Table D4); assay type: in vivo, Glycine max; details: crop plant; application rate 80 g/ha; visual grading after ca. 3 weeks
BRSNW [14] = experiment: Pre-emergence effects on crop plants (Table D5); assay type: in vivo, Brassica napus; details: crop plant; application rate 320 g/ha; visual grading after ca. 3 weeks
VIOTR = experiment: Herbicidal post-emergence action, section E (Table E10); assay type: in vivo, Viola tricolor; details: application rate 320 g/ha; assessed visually after ca. 3 weeks
Excerpt: (§4) 2 to 3 weeks after sowing, the test plants were sprayed in the single-leaf stage.

ZEAMX = experiment: Post-emergence effects on crop plants (Table F1); assay type: in vivo, Zea mays; details: application rate 320 g/ha, crop plant ZEAMX
Excerpt: as §4

TRZAS [15] = experiment: Post-emergence effects on crop plants (Table F2); assay type: in vivo, Triticum aestivum; details: application rate 320 g/ha, crop plant TRZAS
Excerpt: as §4

ORYZA [16] = experiment: Post-emergence effects on crop plants (Table F3); assay type: in vivo, Oryza sativa; details: application rate 320 g/ha, crop plant ORYZA
Excerpt: as §4

GLXMA [17] = experiment: Post-emergence effects on crop plants (Table F4); assay type: in vivo, Glycine max; details: application rate 320 g/ha, crop plant GLXMA
Excerpt: as §4

BRSNW [18] = experiment: Post-emergence effects on crop plants (Table F5); assay type: in vivo, Brassica napus; details: application rate 80 g/ha, crop plant BRSNW
Excerpt: as §4

ORYZA [19] = experiment: Pre-emergence effects on crop plants (Table D3); details: crop plant; application rate 320 g/ha; visual grading after ca. 3 weeks
MATIN = experiment: Herbicidal pre-emergence action (Table A4); assay type: in vivo, Matricaria inodora; details: application rate 1280 g/ha; visual grading after ca. 3 weeks
Outline: as §1

KCHSC [20] = experiment: Herbicidal pre-emergence action (Table A10); assay type: in vivo, Kochia scoparia; details: application rate 1280 g/ha; visual grading after ca. 3 weeks
Outline: as §1

KCHSC [21] = experiment: Herbicidal post-emergence action (Table B4); assay type: in vivo, Kochia scoparia; details: application rate 1280 g/ha; rated visually after about 3 weeks
Protocol: as §2

LOLRI [22] = experiment: Herbicidal post-emergence action (Table B5); assay type: in vivo, Lolium rigidum; details: application rate 1280 g/ha; rated visually after about 3 weeks
Protocol: as §2

POAAN [23] = experiment: Herbicidal post-emergence action (Table B7); assay type: in vivo, Poa annua; details: application rate 1280 g/ha
Outline: as §3

AMARE = experiment: Herbicidal post-emergence action (Table B11); assay type: in vivo, Amaranthus retroflexus; details: application rate 1280 g/ha
Protocol: as §2

O=C1N(Cc2ccccc2Br)CCCC12CCCN(Cc1cccc(F)c1F)C2=O (racemic) [I-055]
100%: pre-emergence activity against ECHCG (ECHCG [1]; application rate 320 g/ha) | pre-emergence activity against LOLRI (LOLRI [2]; application rate 320 g/ha)
90%: pre-emergence activity against SETVI (SETVI [3]; application rate 320 g/ha) | post-emergence activity against ALOMY (ALOMY) | post-emergence activity against ECHCG (ECHCG [4]) | post-emergence activity against VERPE (VERPE [5]; application rate 320 g/ha)

O=C1N(Cc2cc(F)ccc2Cl)CCCC12CCCN(Cc1cc(F)ccc1Cl)C2=O (racemic) [I-069]
20%: post-emergence activity against ZEAMX (ZEAMX) | post-emergence activity against GLXMA (GLXMA [17]) | pre-emergence activity against ORYZA (ORYZA [19])
90%: pre-emergence activity against ECHCG (ECHCG [1]; application rate 1280 g/ha) | pre-emergence activity against STEME (STEME; application rate 320 g/ha) | pre-emergence activity against VERPE (VERPE [7]) | post-emergence activity against VIOTR (VIOTR)
100%: pre-emergence activity against SETVI (SETVI [3]; application rate 320 g/ha) | pre-emergence activity against POAAN (POAAN [6]) | pre-emergence activity against DIGSA (DIGSA [8]) | post-emergence activity against ALOMY (ALOMY) | pre-emergence activity against DIGSA (DIGSA [9]) | pre-emergence activity against SETVI (SETVI [11])
0%: pre-emergence activity against TRZAS (TRZAS [12]) | pre-emergence activity against GLXMA (GLXMA [13]) | pre-emergence activity against BRSNW (BRSNW [14]) | post-emergence activity against TRZAS (TRZAS [15]) | post-emergence activity against ORYZA (ORYZA [16]) | post-emergence activity against BRSNW (BRSNW [18])
80%: pre-emergence activity against ECHCG (ECHCG [10]) | pre-emergence activity against POLCO (POLCO)

O=C1N(Cc2cccc(F)c2F)CCC12CCN(Cc1cccc(F)c1F)C2=O (racemic) [I-090]
100%: pre-emergence activity against ECHCG (ECHCG [1]; application rate 1280 g/ha)
90%: pre-emergence activity against LOLRI (LOLRI [2]; application rate 1280 g/ha) | pre-emergence activity against MATIN (MATIN) | pre-emergence activity against SETVI (SETVI [3]; application rate 1280 g/ha) | pre-emergence activity against STEME (STEME; application rate 1280 g/ha) | pre-emergence activity against KCHSC (KCHSC [20]) | post-emergence activity against KCHSC (KCHSC [21])

O=C1N(Cc2cccnc2C(F)(F)F)CCCC12CCCN(Cc1cccnc1C(F)(F)F)C2=O [I-184, (+)-2,8-bis{[2-(trifluoromethyl)pyridin-3-yl]methyl}-2,8-diazaspiro[5.5]undecane-1,7-dione]
100%: pre-emergence activity against ECHCG (ECHCG [1]; application rate 1280 g/ha)
90%: pest or weed control at 1280 g/ha (LOLRI [2]; Lolium rigidum, pre-emergence, 504 h, application rate 1280 g/ha, read-out: pre-emergence activity against LOLRI) | pest or weed control at 1280 g/ha (ECHCG [4]; Echinochloa crus-galli, post-emergence, 504 h, read-out: post-emergence activity against ECHCG) | post-emergence activity against KCHSC (KCHSC [21]) | post-emergence activity against LOLRI (LOLRI [22]) | post-emergence activity against POAAN (POAAN [23]) | post-emergence activity against VERPE (VERPE [5]; application rate 1280 g/ha) | post-emergence activity against AMARE (AMARE)
